Source: patent US8022225B2, “Triazole derivative” (Taisho Pharmaceutical Co., Ltd, priority 2004, dated 2011)

Tests used:
human Edg-1(S1P1) [1] = target: T1, human Edg-1(S1P1) (Homo sapiens, UniProt P21453); assay: Cell system binding test: inhibition of [3H]-S1P binding to Edg-1(S1P1) gene transferred HEK-293 cells; settings: 10 μM compound, [3H]-S1P 10 nM, read-out: Cell system binding test % inhibition (10 μM)
T1 construct: expressed in transfected cells; host or cells: HEK-293
Procedure: Cells (1×10^5 cells/well) obtained as described above were seeded in poly-L-lysine-coated 96-well plates (Corning Incorporated), and then incubated in a 5% carbon dioxide gas incubator for 12 hours at 37° C. with the use of an MEM medium (Invitrogen Corporation) containing 100 U/mL of penicillin, 100 μg/mL of streptomycin, a 1% MEM nonessential amino acid solution, and 10% FCS. […] After the cells were washed twice with the buffer, they were solubilized with 100 μL of Opti Phase Supermix (produced by Perkin-Elmer), and measured for radioactivity by means of Micro Beta (produced by Perkin-Elmer).
Inhibition rate(%)=[1−(A−C)/(B−C)]×100

human Edg-1(S1P1) [2] = target: T1, human Edg-1(S1P1); assay: Membrane system binding test: inhibition of [33P]-S1P binding to the membrane fraction of Edg-1(S1P1) gene transferred HEK-293 cells
Procedure: The membrane fraction was obtained by treating the cells with a solubilizing buffer (1 mM Tris/HCl, pH 7.2) for 10 minutes on ice, centrifuging the system (1000×g, 5 min) to remove insoluble fractions, and then centrifuging the system (40000×g, 30 min, 4° C.). The resulting membrane fraction was dissolved in a binding buffer (20 mM Tris-HCl, pH 7.4, 100 mM NaCl, 15 mM NaF, 2 mM deoxypyridoxine, 4 mg/mL fatty acid-free BSA), and then [^33P]-S1P (produced by ARC, end concentration 0.1 nM) and a DMSO solution of the test compound (end concentration of the compound: 10^−5 M, end concentration of DMSO: 0.1%) were added, followed by stirring the mixture and subsequently treating it for 1 hour at 30° C. Using a harvester, the membrane fraction was harvested onto unifilter-96GF/C filter (produced by Perkin-Elmer). Then, the filter with the membrane fraction was washed 4 times with the binding buffer, and the filter was dried. To the filter, 25 μL Microscint 0 (produced by Perkin-Elmer) was added, and the assay system was measured for radioactivity by means of Top Count NXT (Packard). Based on the radioactivity, the amount (A) of binding of [^33P]-S1P to the membrane fraction upon addition of the compound was calculated.
The same procedure was performed in the absence of the test compound, and the amount (B) of binding of [^33P]-S1P was calculated. Moreover, the same procedure was performed in the absence of the test compound with the use of HEK-293 cells, to which the Edg-1(S1P1) gene had not been transferred, and the background amount (C) of binding of [^33P]-S1P was calculated.
The Edg-1(S1P1) binding inhibition rate of the compound, calculated from the following equation, is shown in […]

[3] = 10 μM compound, [33P]-S1P 0.1 nM, membrane fraction of Edg-1(S1P1) gene transferred HEK-293 cells, read-out: Membrane system binding test % inhibition (10 μM)
[4] = test compound 10^-5 M, [33P]-S1P 0.1 nM, 1 hour at 30° C., HEK-293 membrane fraction, read-out: Edg-1(S1P1) binding inhibition rate (membrane system binding test)

T1 sequence (P21453 whole entry): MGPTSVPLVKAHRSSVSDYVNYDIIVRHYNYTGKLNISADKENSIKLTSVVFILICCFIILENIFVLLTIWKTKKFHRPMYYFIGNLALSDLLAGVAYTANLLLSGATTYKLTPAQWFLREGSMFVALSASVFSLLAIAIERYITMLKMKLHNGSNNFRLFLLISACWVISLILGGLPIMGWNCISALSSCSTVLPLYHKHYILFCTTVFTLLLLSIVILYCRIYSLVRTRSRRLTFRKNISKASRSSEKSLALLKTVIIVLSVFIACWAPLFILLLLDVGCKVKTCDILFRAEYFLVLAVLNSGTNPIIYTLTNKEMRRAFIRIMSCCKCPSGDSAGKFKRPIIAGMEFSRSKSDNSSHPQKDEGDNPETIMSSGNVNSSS

| Structure (SMILES) | inhibition at 10 µM (human Edg-1(S1P1) [1]) [%] | inhibition at 10 µM (human Edg-1(S1P1) [2]; [3]) [%] | inhibition at 10 µM (human Edg-1(S1P1) [2]; [4]) [%] | also measured |
| --- | --- | --- | --- | --- |
| CCCSc1nnc([C@@H](C)NS(=O)(=O)c2ccc(Cl)cc2)n1CC [Compound 2] | 88.5 | 101 |  |  |
| C=CCSc1nnc([C@@H](C)NS(=O)(=O)c2ccc(Cl)cc2)n1CC [Compound 3] | 86.1 | 89.1 |  |  |
| C#CCSc1nnc([C@@H](C)NS(=O)(=O)c2ccc(Cl)cc2)n1CC [Compound 4] | 86.8 | 101 |  |  |
| CCn1c(SCc2ccccc2)nnc1[C@@H](C)NS(=O)(=O)c1ccc(Cl)cc1 [Compound 5, N-{(1R)-1-[5-(benzylthio)-4-ethyl-4H-1,2,4-triazol-3-yl]ethyl}-4-chloro-benzenesulfonamide] | 97.2 | 81.2 |  |  |
| CCn1c(SCc2ccc(-c3ccccc3)cc2)nnc1[C@@H](C)NS(=O)(=O)c1ccc(Cl)cc1 [Compound 6] | 94.3 | 99 |  |  |
| CCn1c(SCc2cccc(C#N)c2)nnc1[C@@H](C)NS(=O)(=O)c1ccc(Cl)cc1 [Compound 7] | 88.5 | 74.6 |  |  |
| CCn1c(SC2CCCCC2)nnc1[C@@H](C)NS(=O)(=O)c1ccc(Cl)cc1 [Compound 8] | 83.9 | 85.6 |  |  |
| CCn1c(SC2CCCC2)nnc1[C@@H](C)NS(=O)(=O)c1ccc(Cl)cc1 [Compound 9] | 90.1 | 86.7 |  |  |
| CCn1c(SCC2CC2)nnc1[C@@H](C)NS(=O)(=O)c1ccc(Cl)cc1 [Compound 10] | 85.6 | 54.3 |  |  |
| CCn1c(SCc2ccc(F)cc2)nnc1[C@@H](C)NS(=O)(=O)c1ccc(Cl)cc1 [Compound 11] | 85.5 | 45.1 |  |  |
| CCn1c(SCC2(c3ccc(Cl)cc3)CC2)nnc1[C@@H](C)NS(=O)(=O)c1ccc(Cl)cc1 [Compound 12] | 87.8 | 85.9 |  |  |
| CCn1c(SCC2CCOC2)nnc1[C@@H](C)NS(=O)(=O)c1ccc(Cl)cc1 (stereo partly shown) [Compound 13] | 80.8 | 43.6 |  |  |
| C=CCCSc1nnc([C@@H](C)NS(=O)(=O)c2ccc(Cl)cc2)n1CC [Compound 14] | 87 | 69.6 |  |  |
| CCn1c(SCCCC(F)(F)F)nnc1[C@@H](C)NS(=O)(=O)c1ccc(Cl)cc1 [Compound 15] | 91 | 79.4 |  |  |
| CCn1c(SCCOC)nnc1[C@@H](C)NS(=O)(=O)c1ccc(Cl)cc1 [Compound 16] | 92.1 | 64.4 |  |  |
| CCC#CCSc1nnc([C@@H](C)NS(=O)(=O)c2ccc(Cl)cc2)n1CC [Compound 17] | 85.5 | 90.6 |  |  |
| CCn1c(SCCCC#Cc2ccccc2)nnc1[C@@H](C)NS(=O)(=O)c1ccc(Cl)cc1 [Compound 18] | 84.8 | 100 |  |  |
| CCn1c(SCCc2ccc(Cl)cc2)nnc1[C@@H](C)NS(=O)(=O)c1ccc(Cl)cc1 [Compound 19] | 82.5 | 100 |  |  |
| CCCC(CCC)Sc1nnc([C@@H](C)NS(=O)(=O)c2ccc(Cl)cc2)n1CC [Compound 20] | 84.3 | 74.3 |  |  |
| C/C=C/CSc1nnc([C@@H](C)NS(=O)(=O)c2ccc(Cl)cc2)n1CC [Compound 21] | 82.2 | 74.8 |  |  |
| CCn1c(SCc2cccc(C)c2)nnc1[C@@H](C)NS(=O)(=O)c1ccc(Cl)cc1 [Compound 22] | 82.1 | 96.9 |  |  |
| CCCOc1nnc([C@H](C)NS(=O)(=O)c2ccc(Cl)cc2)n1CC [Compound 184] |  | 44.4 |  |  |
| CCn1c(OC)nnc1[C@@H](C)NS(=O)(=O)c1ccc(C)nc1 [Compound 281] |  | 75.5 |  |  |
| CCn1c(OC)nnc1[C@@H](Cc1ccccc1)NS(=O)(=O)c1ccc(Cl)c(Cl)c1 [Compound 507] |  |  | 96.7 |  |
| CCn1c(SC)nnc1C(Cc1ccc(C(F)(F)F)cc1)NS(=O)(=O)c1ccc(Cl)c(Cl)c1 (stereo not shown) [Compound 518] |  |  | 83.5 |  |
| CCn1c(SC)nnc1C(Cc1ccc(C)cc1)NS(=O)(=O)c1ccc(Cl)c(Cl)c1 (stereo not shown) [Compound 523] |  |  | 82.5 |  |

| Structure (SMILES) | inhibition at 10 µM (human Edg-1(S1P1) [1]) [%] | inhibition at 10 µM (human Edg-1(S1P1) [2]; [3]) [%] | inhibition at 10 µM (human Edg-1(S1P1) [2]; [4]) [%] | also measured |
| --- | --- | --- | --- | --- |
| CCn1c(SC)nnc1C(Cc1ccc(Cl)c(Cl)c1)NS(=O)(=O)c1ccc(Cl)c(Cl)c1 (stereo not shown) [Compound 524] |  |  | 75 |  |
| CCCOc1nnc([C@@H](Cc2ccc(C)cc2)NS(=O)(=O)c2ccc(Cl)c(Cl)c2)n1CC [Compound 525] |  |  | 98 |  |
| CCCOc1nnc([C@@H](Cc2ccc(Cl)c(Cl)c2)NS(=O)(=O)c2ccc(Cl)c(Cl)c2)n1CC [Compound 526] |  |  | 88.9 |  |
| CCCOc1nnc([C@@H](Cc2ccc(OC)cc2)NS(=O)(=O)c2ccc(Cl)c(Cl)c2)n1CC [Compound 527] |  |  | 89.7 |  |
| CCCOc1nnc([C@@H](Cc2ccc(OC)cc2)NS(=O)(=O)c2ccc(Cl)c(Cl)c2)n1CC [Compound 528] |  |  |  | Edg-1(S1P1) binding inhibition rate (membrane system binding test) (human Edg-1(S1P1) [2]; test compound 10^-5 M, [33P]-S1P 0.1 nM, 1 hour at 30° C., HEK-293 membrane fraction): 94.0% |
| CCCOc1nnc([C@@H](Cc2ccccc2)NS(=O)(=O)c2ccc(Cl)c(Cl)c2)n1CC [Compound 529] |  |  | 100 |  |
| CCn1c(OCC(F)(F)F)nnc1C(Cc1ccccc1)NS(=O)(=O)c1ccc(Cl)c(Cl)c1 (stereo not shown) [Compound 530] |  |  | 97.2 |  |
| CCn1c(OC2CCC2)nnc1[C@@H](Cc1ccccc1)NS(=O)(=O)c1ccc(Cl)c(Cl)c1 [Compound 531] |  |  | 100 |  |
| CCn1c([C@@H](C)NS(=O)(=O)c2ccc(Cl)c(Cl)c2)nnc1S(C)(=O)=O [Compound 532] |  |  | 53.8 |  |
| CCn1c(OC2CCCC2)nnc1[C@@H](Cc1ccccc1)NS(=O)(=O)c1ccc(Cl)c(Cl)c1 [Compound 533] |  |  | 98.9 |  |
| CCn1c(OC2CCCCC2)nnc1[C@@H](Cc1ccccc1)NS(=O)(=O)c1ccc(Cl)c(Cl)c1 [Compound 534] |  |  | 98.3 |  |
| CCn1c(OCCCOC)nnc1[C@@H](Cc1ccccc1)NS(=O)(=O)c1ccc(Cl)c(Cl)c1 [Compound 535] |  |  | 102 |  |
| CCOc1nnc([C@@H](Cc2ccccc2)NS(=O)(=O)c2ccc(Cl)c(Cl)c2)n1CC [Compound 536] |  |  | 98.4 |  |
| CCn1c(OC(C)C)nnc1[C@@H](Cc1ccccc1)NS(=O)(=O)c1ccc(Cl)c(Cl)c1 [Compound 537] |  |  | 101 |  |
| CCn1c(OCCCN2CCOCC2)nnc1[C@@H](Cc1ccccc1)NS(=O)(=O)c1ccc(Cl)c(Cl)c1 [Compound 538] |  |  | 103 |  |
| CCn1c(OCC2CC2)nnc1[C@@H](Cc1ccccc1)NS(=O)(=O)c1ccc(Cl)c(Cl)c1 [Compound 545] |  |  | 101 |  |
| CCn1c(OCc2ccccc2)nnc1[C@@H](Cc1ccccc1)NS(=O)(=O)c1ccc(Cl)c(Cl)c1 [Compound 546] |  |  | 96.9 |  |
| CCn1c(OC)nnc1[C@@H](Cc1ccc(-c2ccccc2)cc1)NS(=O)(=O)c1ccc(Cl)c(Cl)c1 [Compound 547] |  |  | 85.4 |  |
| CCn1c(OC)nnc1[C@@H](Cc1ccc(F)cc1)NS(=O)(=O)c1ccc(Cl)c(Cl)c1 [Compound 548] |  |  | 99.8 |  |
| CCn1c(OC)nnc1[C@@H](Cc1ccc(F)c(F)c1)NS(=O)(=O)c1ccc(Cl)c(Cl)c1 [Compound 549] |  |  | 99.7 |  |
| CCn1c(OC)nnc1[C@@H](Cc1ccccc1F)NS(=O)(=O)c1ccc(Cl)c(Cl)c1 [Compound 550] |  |  | 98.6 |  |
| CCn1c(OC)nnc1[C@@H](Cc1cccc(F)c1)NS(=O)(=O)c1ccc(Cl)c(Cl)c1 [Compound 551] |  |  | 101 |  |
| CCn1c(OC)nnc1[C@@H](Cc1cc(F)cc(F)c1)NS(=O)(=O)c1ccc(Cl)c(Cl)c1 [Compound 552] |  |  | 97.3 |  |
| COc1nnc([C@@H](Cc2ccccc2)NS(=O)(=O)c2ccc(Cl)c(Cl)c2)n1C [Compound 553] |  |  | 94.2 |  |
| CCCn1c(OC)nnc1[C@@H](Cc1ccccc1)NS(=O)(=O)c1ccc(Cl)c(Cl)c1 [Compound 554] |  |  | 88 |  |
| CCCCCCCCCCCCC/C=C\C(O)C(N)COP(=O)(O)O (stereo not shown) [[^33P]-S1P, reference compound] |  |  |  | Kd (human Edg-1(S1P1) [2]; radioligand binding, membrane fraction, read-out: Kd of binding to human Edg-1(S1P1) gene transferred HEK-293 cell strain membrane fraction): 0.15 nM |
